The nature of series [1]: Cytotoxicity in mammalian cells (CellTiter-Glo), HepG2. In kind it is cell-based. The settings on record: HepG2 hepatocellular carcinoma cells; HepG2 human hepatocellular carcinoma line; 72 h drug incubation; mean of three experiments; read-out: mammalian cells CC50 (±SEM), HepG2. How it is done:
(§1) Cell lines J774 and HepG2 were incubated with the drug for 72 h, the same time frame as employed to determine antimalarial activity. Cytotoxicity was evaluated in parallel with ATV as a representative parental drug, while doxorubicin was used as a standard cytotoxic drug. These experiments were also used to estimate the in vitro selectivity index (Table 2).
(§2) Doxorubicin chloridrate (Eurofarma, São Paulo, Brazil) was used as a positive control, while untreated cells were employed as negative controls. Bioluminescence readings were performed using a Filtermax F5Multi-Mode instrument (Molecular Devices, Sunnyvale, CA) using the CellTiter-Glo kit (Promega Corporation, Madison, USA). Three independent experiments were performed and CC50 values were calculated.
For orientation: ATP-based viability assays read luminescence as a measure of living cells.

Series [2] has as its system P. falciparum 3D7 (CQ-susceptible strain). Nature of the series: Antiplasmodial activity, asexual blood stages, HRP2 ELISA-based assay, 3D7 strain. In kind it is cell-based, Plasmodium falciparum. The note with it: for IC50: CQ-susceptible 3D7 strain, 72 h drug incubation, mean of five to seven experiments, read-out: P. falciparum IC50 (±SEM), 3D7. The source says:
We determined the half-maximal inhibitory concentration (IC50) of the complexes against asexual blood stages of P. falciparum using CQ-susceptible and CQ-resistant strains (Table 2). […]. Two strains were selected for the tests: the CQ-susceptible 3D7 strain (isolated in West Africa; obtained from MR4, VA, USA), and the CQ-resistant W2 strain (isolated in Indochina; obtained from MR4, VA, USA). Both were maintained in culture in RPMI 1640 (Invitrogen, Paisley, UK), supplemented with 10% human serum (Abcys S.A. Paris, France), and buffered with 25 mM HEPES and 25 mM NaHCO3. Parasites were grown in A-positive human blood (Etablissement Français du Sang, Marseille, France) in controlled atmospheric conditions that consisted of 10% O2, 5% CO2, and 85% N2 at 37 °C with 95% humidity. […]
For in vitro isotopic microtests, 25 μL/well of antimalarial drug and 200 μL/well of parasitized red blood cell suspension (final parasitemia 0.5%, final hematocrit 1.5%) were distributed into 96-well plates. The plates were incubated for 72 h at 37 °C in 85% N2, 10% O2, 5% CO2. After freezing and then thawing, the hemolyzed cultures were homogenized by vortexing the plates. The drug susceptibility assay was performed using the HRP2 ELISA-based assay of the Malaria Ag Celisa kit (ref KM2159, Cellabs PTY LDT, Brookvale, Australia), as described previously.[72] […] […]. IC50 are expressed as means of at least 5 to 7 independent experiments.
A general note: An ELISA detects its analyte on a solid surface through an enzyme-linked reagent.

Series [3] is described as follows: Cytotoxicity in mammalian cells (CellTiter-Glo), J774. The series is classed as cell-based. The note with it: mouse, J774 macrophage cells; J774 murine macrophage line; 72 h drug incubation; mean of three experiments; read-out: mammalian cells CC50 (±SEM), J774. How it is done:
as §1, §2

Series [4] can be described thus: Chemical stability in solution (UV–vis, NMR, molar conductivity). The series is classed as physicochemical. The settings on record: for ΛM (DMSO) Day 1 / ΛM (DMSO) Day 2 / ΛM (DMSO) Day 3 / ΛM (DMSO) Day 7 / ΛM (DMSO) Day 15: molar conductivity in DMSO, stability; for stability by UV–vis in pure DMSO: primarily within 0–24 h. How it is done:
Three distinct methodologies were used to investigate the in-solution stability of metal–ATV complexes 1–3, namely ultraviolet–visible (UV–vis) spectra, NMR, and molar conductivity. All experiments were performed in dimethyl sulfoxide (DMSO) and monitored for at least 72 h, a time frame which coincides with antimalarial drug treatment.
Furthermore, no significant changes in the ^1H NMR and ^31P{^1H} NMR spectra of the complexes were observed up to 72 h in comparison to freshly dissolved solution, denoted as time 0 h (Figures S20–S25). However, for the ^31P{^1H} NMR spectrum of the complex 3, it is observed an increasing intensity of the singlet at 28 ppm that can be attributed to oxidized PPh3, which may be leaving the coordination sphere, but this is relative low when compared with the signal of the complex at −1.76 ppm. Both molar conductivity and NMR data therefore indicate that the metal complexes remained intact in this condition. The observed […] in DMSO is likely related to the fact that the metal atoms are bonded to phosphine ligands, hindering any oxidation of the metal center.
As for the UV–vis analyses, these were used to assess the stability of metal–ATV complexes 1–3 in a solution of pure DMSO or DMSO mixed with aqueous media. To this end, three different conditions were employed in parallel experiments. […] The small change in absorbance observed can be attributed to dynamic equilibrium processes or structural reorganization of the metal complexes. These processes may include partial dissociation of ligands, reorientation of solvent molecules around the metal ion, or even conformational changes of the metal complexes. […] Highlighting that these conditions are the most similar to those employed in the determination of biological activity. Based on this, we concluded that in mixed aqueous/organic media, ATV and complexes 1–3 may undergo slight structural modifications, but no significant ligand exchange reactions occur, as previously observed in the stability studies by NMR.
For the stability studies by NMR spectroscopy, fresh solutions of the complexes in DMSO-d6 with concentrations of 22–25 mM were used. In the studies by UV–vis spectroscopy, three experimental conditions were employed: a) only DMSO, b) 90% DMSO/10% H2O, and c) 90% DMSO/10% RPMI 1640 (Roswell Park Memorial Institute) medium, with concentrations of the complexes 1-3 in 0.28–0.35 μM, 0.25–0.28 μM and 0.32–0.38 μM, respectively. Fresh solutions of the complexes dissolved in DMSO were always used and subsequently diluted with water or RPMI medium.

A further series concerns J774 cell line. Nature of the series: Cytotoxicity after preincubation of compounds in cell culture medium (Figure 3B). The series is classed as cell-based, murine. The settings on record: J774 cells; compound preincubated 0 or 72 h in culture medium. How it is done:
Figure 3 (A) Antiplasmodial activity of the compounds against the 3D7 strain of P. falciparum. (B) Cytotoxicity against the J774 cell line. In both cases, the compounds were diluted in cell culture and incubated for 0 or 72 h before use in the assays. […] In panels A and C, parasite viability was measured by HRP2 ELISA-based assay, and IC50 values were calculated. In panel B, cell viability was measured by CellTiter-Glo, and IC50 values were calculated. In panels A and B, the values are the mean and standard deviation of two independent experiments, using each concentration of compounds in duplicate. In panel C, the values are the mean and standard deviation of one experiment, using each concentration of compounds in quadruplicate. *p < 0.05; indicating significant difference by Student’s t test.
To further shed light on this, we performed the same experiment described above but assessing cytotoxicity in […] cells (Figure 3B). […] Our data also confirm not only drug stability but also the reactivity of the resulting products as important parameters.

Like-named read-outs stand apart in the source and are kept apart here.

A word on the CC50: it is the concentration at which the toxic effect on the cells reaches its halfway point. Broadly, the IC50 is the midpoint of a concentration-inhibition curve. For `O=C1C(O)=C([C@H]2CC[C@H](c3ccc(Cl)cc3)CC2)C(=O)c2ccccc21` [ATV, atovaquone], in series [1], the half-maximal cytotoxic concentration (CC50) at 72 h came to 32400 ± 4800 nM. Besides, the “Selectivity index (S.I.)” value in series [2] (CC50 (J774)/IC50(3D7)) was found to be 8250. Also, the IC50 in series [2] (Plasmodium falciparum) is 2.4 ± 1.2 nM. Further, the half-maximal cytotoxic concentration (CC50) at 72 h in series [3] came to 19800 ± 1600 nM. For the same compound, in series [4], the “ΛM (DMSO) Day 1” value amounted to 0.93 Ohm-1cm2mol-1, the “ΛM (DMSO) Day 2” value was determined as 1.07 Ohm-1cm2mol-1, the “ΛM (DMSO) Day 3” value is reported as 1.23 Ohm-1cm2mol-1 and the “ΛM (DMSO) Day 7” value worked out at 1.68 Ohm-1cm2mol-1. The “ΛM (DMSO) Day 15” value in series [4] stood at 2.04 Ohm-1cm2mol-1.
`O=C1C([O][Cu]([PH](c2ccccc2)(c2ccccc2)c2ccccc2)[PH](c2ccccc2)(c2ccccc2)c2ccccc2)=C([C@H]2CC[C@H](c3ccc(Cl)cc3)CC2)C(=O)c2ccccc21` [Complex 3, [Cu(ATV)(PPh3)2]]: the half-inhibitory concentration (IC50) in series [2] was determined as 30.7 ± 10.7 nM. Moreover, the “cell viability (cytotoxicity) after 72 h incubation in cell culture medium versus freshly prepared samples (0 h)” value in the series with J774 cell line was “remained unchanged”. Also, the “stability by UV–vis in 90% DMSO mixed with 10% water” value in series [4] (90% DMSO/10% H2O) is “major change in the spectra”. In series [4], the “ΛM (DMSO) Day 1” value came to 3.71 Ohm-1cm2mol-1, the “ΛM (DMSO) Day 2” value is given as 3.80 Ohm-1cm2mol-1, the “ΛM (DMSO) Day 3” value was found to be 3.47 Ohm-1cm2mol-1 and the “ΛM (DMSO) Day 7” value was 3.14 Ohm-1cm2mol-1. Also, in series [4], the “ΛM (DMSO) Day 15” value is listed as 3.05 Ohm-1cm2mol-1 and the “stability by UV–vis in pure DMSO” value is reported as “modifications were observed in the electronic spectra”.
Regarding [Ag(ATV)(PPh3)2] [Complex 1], the half-maximal inhibitory concentration (IC50) in series [2] was 30.5 ± 9.7 nM. The “cell viability (cytotoxicity) after 72 h incubation in cell culture medium versus freshly prepared samples (0 h)” value with J774 cell line is given as “became less cytotoxic”. Moreover, in series [4], the “ΛM (DMSO) Day 1” value was found to be 12.81 Ohm-1cm2mol-1, the “ΛM (DMSO) Day 2” value came to 13.90 Ohm-1cm2mol-1, the “ΛM (DMSO) Day 3” value came to 16.14 Ohm-1cm2mol-1 and the “ΛM (DMSO) Day 7” value was found to be 13.70 Ohm-1cm2mol-1. Moreover, the “ΛM (DMSO) Day 15” value in series [4] turned out to be 12.17 Ohm-1cm2mol-1.
For [Au(ATV)(PPh3)]·2H2O [Complex 2], the IC50 in series [2] amounted to 8.1 ± 2.7 nM. Besides, the “cell viability (cytotoxicity) after 72 h incubation in cell culture medium versus freshly prepared samples (0 h)” value in the series with J774 cell line is reported as “remained unchanged”. In series [4], the “ΛM (DMSO) Day 1” value was 12.69 Ohm-1cm2mol-1, the “ΛM (DMSO) Day 2” value turned out to be 14.51 Ohm-1cm2mol-1, the “ΛM (DMSO) Day 3” value is listed as 12.53 Ohm-1cm2mol-1 and the “ΛM (DMSO) Day 7” value turned out to be 12.41 Ohm-1cm2mol-1. Further, in series [4], the “ΛM (DMSO) Day 15” value is recorded as 11.84 Ohm-1cm2mol-1 and the “stability by UV–vis in pure DMSO” value was “modifications were observed in the electronic spectra”.

For the origin of these results see paper PMC11409218, “Metal(triphenylphosphine)-atovaquone Complexes: Synthesis, Antimalarial Activity, and Suppression of Heme Detoxification” (Inorganic Chemistry, 2024).
